Measured values published in patent US20100172983A1 (priority 2001, published 2010).
One block for each compound: values may come before it.

Tests used:
[1] = in vivo; cited from earlier work
[2] = tested on: gastric pH; details: during the 8-10 hours following naproxen sodium dosing
[3] = tested on: gastroduodenal mucosa; details: twice daily for five days
[4] = tested on: intragastric pH; assay: Emax model: esomeprazole AUC0-24 vs percent time intragastric pH>4.0 on Day 9 (Example 11); assay type: in vivo, human

SMILES: O=C(c1ccccc1)c1ccc2n1CCC2C(=O)O (stereo not drawn) [ketorolac]
- half-life [1]: 8 to 9 h

SMILES: COc1ccc2cc([C@H](C)C(=O)O)ccc2c1 [naproxen sodium]
- time the pH was greater than 4 [2]: 4%
- patients presenting with gastroduodenal ulcers at the end of the study [3]: 33%
- subjects with Lanza grade 3 or 4 damage ([3]; Day 5 endoscopy): 100%

SMILES: CC(C(=O)O)c1ccc(-c2ccccc2)c(F)c1 (stereo not drawn) [flurbiprofen]
- half-life [1]: about 6 hours

SMILES: Cc1cccc(Nc2ccccc2C(=O)O)c1C [mefenamic acid]
- half-life [1]: up to 4 hours

SMILES: CCc1cccc2c3c([nH]c12)C(CC)(CC(=O)O)OCC3 (stereo not drawn) [etodolac]
- half-life [1]: about 7 hours

- AUC0-24 value required to achieve half (or 50%) of the maximal response (EC50) ([4]; Day 9, plasma esomeprazole): 713 ng·h/mL
SMILES: COc1ccc2nc([S@@+]([O-])Cc3ncc(C)c(OC)c3C)[nH]c2c1 [esomeprazole]
- Emax, maximal effect: % of time with intragastric pH>4.0 over the daily interval at steady state ([4]; Day 9): 90.4%
